Laboratory results as given in patent publication US7741347B2, “Hepatitis C virus inhibitors” (Bristol-Myers Squibb Company, priority 2007, dated 2010).

tested on: HCV 1b-377-neo replicon cells; assay: HCV replicon assay, wild-type cells; type: cell-based; conditions: Hepatitis C virus, read-out: EC50 against the HCV 1b genotype (Activity)
Protocol: An HCV Replion assay was utilized in the present disclosure, and was prepared, conducted and validated as described in commonly owned PCT/US2006/022197 and in O'Boyle et. al. Antimicrob Agents Chemother. 2005 April; 49(4): 1346-53.
HCV 1b-377-neo replicon cells were used to test representative compounds described within this disclosure as were cells resistant to compound A due to a Y2065H mutation in NS5A (described in application PCT/US2006/022197). The compounds tested were determined to have an approximately 10-fold less inhibitory activity on cells resistant to compound A than wild-type cells indicating a related mechanism of action between the two compound series. Thus, the compounds can be effective to be effective to inhibit the function of the HCV NS5A protein and are understood to be as effective in combinations as previously described in application PCT/US2006/022197 and commonly owned WO/04014852. Further, the compounds are effective against the HCV 1b genotype. It should also be understood that the compounds of the present disclosure can inhibit multiple genotypes of HCV. […] Ranges are as follows: A=1-10 μM; B=100-999 nM; C=1-99 nM; and D=10-999 pM.

Row | SMILES | EC50
1 | COC(=O)N[C@@H](C(=O)N1CCC[C@H]1c1cc(-c2ccc(-c3ccc(-c4cnc([C@@H]5CCCN5C(=O)[C@H](NC(=O)OC)c5ccccc5)[nH]4)cc3)cc2)n[nH]1)c1ccccc1 [Example 31] | 0.01 to 0.999 nM
2 | CN(C)[C@@H](C(=O)N1CCC[C@H]1c1cc(-c2ccc(-c3ccc(-c4cnc([C@@H]5CCCN5C(=O)[C@@H](c5ccccc5)N(C)C)[nH]4)cc3)cc2)n[nH]1)c1ccccc1 [Example 32] | 0.01 to 0.999 nM
3 | COC(=O)N[C@@H](C(=O)N1CCC[C@H]1c1ncc(-c2ccc(-c3ccc(-c4nnc([C@@H]5CCCN5C(=O)[C@H](NC(=O)OC)c5ccccc5)[nH]4)cc3)cc2)[nH]1)c1ccccc1 [Example 33] | 0.01 to 0.999 nM
4 | COC(=O)N[C@@H](C(=O)N1CCC[C@H]1c1nnc(-c2ccc(-c3ccc(-c4nnc([C@@H]5CCCN5C(=O)[C@H](NC(=O)OC)c5ccccc5)[nH]4)cc3)cc2)[nH]1)c1ccccc1 [Example 34] | 0.01 to 0.999 nM
5 | CN(C)[C@@H](C(=O)N1CCC[C@H]1c1nnc(-c2ccc(-c3ccc(-c4nnc([C@@H]5CCCN5C(=O)[C@@H](c5ccccc5)N(C)C)[nH]4)cc3)cc2)[nH]1)c1ccccc1 [Example 35] | 1 to 99 nM
6 | COC(=O)N[C@H](C(=O)N1CCC[C@H]1c1cnc(-c2ccc(-c3ccc(-c4cnc([C@@H]5CCCN5C(=O)[C@@H](NC(=O)OC)[C@@H](C)OC)o4)cc3)cc2)[nH]1)[C@@H](C)OC [Example 38] | 0.01 to 0.999 nM

same assay, conditions: read-out: EC50 against the HCV 1b genotype (Activity)

Row | SMILES | EC50
7 | COC(=O)NC(C(=O)N1CCCC1c1cc(-c2ccc(-c3ccc(-c4cc(C5CCCN5C(=O)C(NC(=O)OC)c5ccccc5)n[nH]4)cc3)cc2)[nH]n1)c1ccccc1 [Example 30, Dimethyl-(1R,1′R)-2,2′-((2S,2′S)-2,2′-(5,5′-(biphenyl-4,4′-diyl)bis(1H-pyrazole-5,3-diyl))bis(pyrrolidine-2,1-diyl))bis(2-oxo-1-phenylethane-2,1-diyl)dicarbamate] | 1 to 99 nM
